Test results as given in patent US20250368648A1, “MULTI-CYCLIC IRAK AND FLT3 INHIBITING COMPOUNDS AND USES THEREOF” (CHILDREN'S HOSPITAL MEDICAL CENTER, priority 2022, published 2025).

Legend:
FLT3 K663Q = target: T1, FLT3 K663Q (Homo sapiens, UniProt P36888, K663Q); experiment: DiscoverX KINOMEscan competition binding, FLT3 K663Q; details: no ATP
T1 construct: purchased DiscoverX (KINOMEscan); host or cells: E. coli (T7 phage) or HEK-293
T1 sequence (P36888 27-993 K663Q): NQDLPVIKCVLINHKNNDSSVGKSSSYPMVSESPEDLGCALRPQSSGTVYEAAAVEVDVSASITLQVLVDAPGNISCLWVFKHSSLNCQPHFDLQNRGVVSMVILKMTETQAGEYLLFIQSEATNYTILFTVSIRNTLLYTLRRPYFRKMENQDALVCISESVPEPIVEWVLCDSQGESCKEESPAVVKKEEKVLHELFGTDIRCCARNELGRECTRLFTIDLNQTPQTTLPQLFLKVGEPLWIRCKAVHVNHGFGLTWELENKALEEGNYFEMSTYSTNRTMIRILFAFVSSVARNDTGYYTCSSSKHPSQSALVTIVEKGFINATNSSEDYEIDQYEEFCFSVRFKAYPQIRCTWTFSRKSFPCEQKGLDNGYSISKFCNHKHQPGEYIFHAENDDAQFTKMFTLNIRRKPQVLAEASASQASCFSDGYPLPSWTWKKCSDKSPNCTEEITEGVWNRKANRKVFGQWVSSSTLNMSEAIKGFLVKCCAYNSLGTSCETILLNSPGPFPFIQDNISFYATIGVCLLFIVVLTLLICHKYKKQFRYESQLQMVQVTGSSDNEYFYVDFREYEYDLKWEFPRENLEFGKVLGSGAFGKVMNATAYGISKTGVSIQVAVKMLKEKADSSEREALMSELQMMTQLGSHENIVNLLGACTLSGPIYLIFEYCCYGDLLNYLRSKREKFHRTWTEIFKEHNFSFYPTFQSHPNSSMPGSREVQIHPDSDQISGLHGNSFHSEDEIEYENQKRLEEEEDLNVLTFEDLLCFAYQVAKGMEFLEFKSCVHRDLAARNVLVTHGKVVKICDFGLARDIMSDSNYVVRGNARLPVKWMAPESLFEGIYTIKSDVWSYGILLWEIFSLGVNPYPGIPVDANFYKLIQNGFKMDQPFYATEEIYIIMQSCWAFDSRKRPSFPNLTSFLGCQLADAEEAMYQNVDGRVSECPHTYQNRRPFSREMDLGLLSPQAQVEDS
Description: (§1) Kinase binding data were obtained for various exemplary compounds prepared according to Examples 2-15 using the DiscoverX KINOMEscan® active site-directed competition binding site-directed assay protocol described below. […] As a result, the data report thermodynamic interaction affinities (Kd values), rather than IC50 values that are dependent on ATP concentrations. The assay uses a DNA-tagged version of the protein kinase, and an immobilized ligand bound to a solid support. Compounds that directly or indirectly prevent kinase binding to the immobilized ligand reduce the amount of kinase captured on the solid support, which is detected using an ultra-sensitive qPCR method. Affinity constants reported from the assay have been reported to be independent of the immobilized ligand used that is coupled to the solid support (See supplemental information in Fabian, M. A. et. al., (2005) Nat. […] Wodicka, L. […] Biol. 17, 1241-1249.) Kinase-tagged T7 phage strains were prepared in an E. coli host derived from the BL21 strain. E. coli were grown to log-phase and infected with T7 phage and incubated with shaking at 32° C. until lysis. […] Kds were determined using an 11-point 3-fold compound dilution series with three DMSO control points. […] The kinase concentration in the eluates was measured by qPCR. Binding constants (Kds) were calculated with a standard dose-response curve using the Hill equation. […]

FLT3 ITD = target: T2, FLT3 ITD (Homo sapiens, UniProt P36888); experiment: DiscoverX KINOMEscan competition binding, FLT3 ITD; details: no ATP
T2 construct: fused on or other part: DNA tag for qPCR read-out (T7 phage fusion, or DNA-tagged kinase made in HEK-293 cells)
T2 sequence (P36888 1-993): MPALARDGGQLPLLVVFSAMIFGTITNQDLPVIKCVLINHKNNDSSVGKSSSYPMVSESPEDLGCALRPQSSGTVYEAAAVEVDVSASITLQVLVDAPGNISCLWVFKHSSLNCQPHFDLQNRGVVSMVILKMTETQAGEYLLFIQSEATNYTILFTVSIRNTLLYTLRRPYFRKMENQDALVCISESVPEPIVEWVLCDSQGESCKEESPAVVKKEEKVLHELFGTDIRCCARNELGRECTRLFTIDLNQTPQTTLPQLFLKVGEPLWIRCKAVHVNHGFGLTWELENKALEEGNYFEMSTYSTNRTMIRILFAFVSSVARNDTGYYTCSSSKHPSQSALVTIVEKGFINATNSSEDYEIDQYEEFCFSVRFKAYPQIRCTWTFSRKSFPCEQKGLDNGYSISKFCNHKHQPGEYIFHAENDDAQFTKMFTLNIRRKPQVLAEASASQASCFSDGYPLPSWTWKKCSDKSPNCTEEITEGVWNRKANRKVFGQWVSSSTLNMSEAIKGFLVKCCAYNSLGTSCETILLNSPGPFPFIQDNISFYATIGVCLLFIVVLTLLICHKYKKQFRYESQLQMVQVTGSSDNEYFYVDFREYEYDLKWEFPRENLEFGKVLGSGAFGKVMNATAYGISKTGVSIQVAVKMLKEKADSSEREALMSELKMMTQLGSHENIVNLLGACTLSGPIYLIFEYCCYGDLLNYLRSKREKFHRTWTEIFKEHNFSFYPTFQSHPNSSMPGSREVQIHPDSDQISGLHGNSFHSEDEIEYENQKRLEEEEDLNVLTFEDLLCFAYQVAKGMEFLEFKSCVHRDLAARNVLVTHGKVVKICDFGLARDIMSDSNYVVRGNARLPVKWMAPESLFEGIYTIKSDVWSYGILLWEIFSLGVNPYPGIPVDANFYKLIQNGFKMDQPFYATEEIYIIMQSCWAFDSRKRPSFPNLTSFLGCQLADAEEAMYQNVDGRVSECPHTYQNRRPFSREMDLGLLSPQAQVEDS
Description: as §1

COc1cc2ncc(-c3nc(N[C@H]4CNCC[C@@H]4F)c(F)cc3F)n2nc1C1CCC1 [Compound 15a, 6-(6-cyclobutyl-7-methoxyimidazo[1,2-b]pyridazin-3-yl)-3,5-difluoro-N-((3S,4S)-4-fluoropiperidin-3-yl)pyridin-2-amine]
Kd (FLT3 K663Q): 620 pM
Kd (FLT3 ITD): 430 pM
